Calls of active or inactive are those of the source.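 Rule for the calls: active = a drop in nitrite signal whose fitted half-maximal concentration is at most ten times the top tested dose; inconclusive = flat fit with 30 to 70% inhibition, or poor curve fit; inactive = the rest.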
Assay: suppression of NO production in INS-1E cells – cell-based, Griess absorbance, dry powder, set 3, dose response (AID 488870)
Conditions: INS-1E cytokine-induced nitrite, Griess absorbance, 48 h; at 19.5 µM (top of the series)

Row | SMILES | activity change, negative = inhibition
1 | Cc1ccc(S(=O)(=O)N(C)C[C@@H]2Oc3c(NC(=O)Nc4ccccc4)cccc3C(=O)N([C@H](C)CO)C[C@H]2C)cc1 | 11.6% (inactive)
2 | C[C@@H]1CN([C@@H](C)CO)C(=O)c2cccc(NC(=O)Nc3cccc4ccccc34)c2O[C@H]1CN(C)CC1CC1 | -0.187% (inactive)
3 | COc1ccc(S(=O)(=O)N(C)C[C@@H]2Oc3c(NC(=O)Nc4cccc5ccccc45)cccc3C(=O)N(C(C)C)C[C@H]2C)cc1 | -11.1% (inactive)
4 | C[C@@H]1CN([C@@H](C)CO)C(=O)c2cccc(NC(=O)Nc3cccc4ccccc34)c2O[C@H]1CN(C)S(C)(=O)=O | 9.52% (inactive)
5 | C[C@H]1CN([C@@H](C)CO)C(=O)c2cccc(NC(=O)NC3CCCCC3)c2O[C@@H]1CN(C)S(C)(=O)=O | 3.92% (inactive)
6 | C[C@@H]1CN([C@@H](C)CO)C(=O)c2cccc(NS(=O)(=O)c3ccccc3)c2O[C@H]1CN(C)Cc1ccc(C(F)(F)F)cc1 | -12.5% (inactive)
7 | COc1ccc(S(=O)(=O)N(C)C[C@H]2Oc3c(NC(=O)Nc4cccc5ccccc45)cccc3C(=O)N([C@H](C)CO)C[C@H]2C)cc1 | -1.83% (inactive)
8 | COc1ccc(S(=O)(=O)N(C)C[C@@H]2Oc3c(NC(=O)c4cnccn4)cccc3C(=O)N([C@@H](C)CO)C[C@H]2C)cc1 | -9.05% (inactive)
9 | COc1ccc(S(=O)(=O)N(C)C[C@@H]2Oc3c(cccc3N(C)C)C(=O)N([C@@H](C)CO)C[C@H]2C)cc1 | 4.92% (inactive)
10 | COc1ccc(S(=O)(=O)N(C)C[C@@H]2Oc3c(NC(=O)c4ccc(-c5nccs5)cc4)cccc3C(=O)N([C@@H](C)CO)C[C@H]2C)cc1 | -2.29% (inactive)
11 | C[C@@H]1CN([C@@H](C)CO)C(=O)c2cccc(NC(=O)Nc3cccc4ccccc34)c2O[C@H]1CN(C)S(=O)(=O)c1cccs1 | -14.1% (inactive)
12 | C[C@@H]1CN([C@@H](C)CO)C(=O)c2cccc(NC(=O)Nc3cccc4ccccc34)c2O[C@H]1CN(C)C(=O)Nc1ccccc1 | -16.1% (inactive)
13 | Cc1ccc(S(=O)(=O)N(C)C[C@@H]2Oc3c(NC(=O)Nc4ccc(F)cc4)cccc3C(=O)N([C@@H](C)CO)C[C@H]2C)cc1 | -6.25% (inactive)
14 | COc1ccc(S(=O)(=O)N(C)C[C@@H]2Oc3c(NS(=O)(=O)c4ccc(F)cc4)cccc3C(=O)N([C@@H](C)CO)C[C@H]2C)cc1 | 9.8% (inactive)
15 | COc1ccc(S(=O)(=O)N(C)C[C@@H]2Oc3c(NC(=O)Nc4c(C)noc4C)cccc3C(=O)N([C@@H](C)CO)C[C@H]2C)cc1 | -4.75% (inactive)
16 | Cc1noc(C)c1NC(=O)N(C)C[C@@H]1Oc2c(NC(=O)Nc3cccc4ccccc34)cccc2C(=O)N([C@@H](C)CO)C[C@H]1C | -7.11% (inactive)
17 | C[C@@H]1CN([C@@H](C)CO)C(=O)c2cccc(NC(=O)Nc3cccc4ccccc34)c2O[C@H]1CN(C)C(=O)Nc1ccc(F)cc1 | -13.6% (inactive)
18 | COc1ccc(S(=O)(=O)N(C)C[C@@H]2Oc3c(NC(=O)Nc4ccc(C(F)(F)F)cc4)cccc3C(=O)N([C@@H](C)CO)C[C@H]2C)cc1 | -18.3% (inactive)
19 | C[C@@H]1CN([C@@H](C)CO)C(=O)c2cccc(NC(=O)Nc3cccc4ccccc34)c2O[C@H]1CN(C)S(=O)(=O)c1ccc2c(n1)N(C)CCO2 | -13.9% (inactive)
20 | COc1ccc(S(=O)(=O)N(C)C[C@@H]2Oc3c(NC(=O)Nc4cccc5ccccc45)cccc3C(=O)N([C@@H](C)CO)C[C@@H]2C)cc1 | -1.85% (inactive)
21 | Cc1ccc(S(=O)(=O)N(C)C[C@@H]2Oc3c(NC(=O)Nc4cccc5ccccc45)cccc3C(=O)N([C@H](C)CO)C[C@H]2C)cc1 | -10.1% (inactive)
22 | COc1ccc(S(=O)(=O)N(C)C[C@@H]2Oc3c(NC(=O)c4cc(C)nn4C)cccc3C(=O)N([C@@H](C)CO)C[C@H]2C)cc1 | -2.17% (inactive)

— PubChem BioAssay AID488870 (Broad Institute, 2010)
